Source: patent US12268665B2, “Combination of immunotherapies with MDM2 inhibitors” (ASCENTAGE PHARMA (SUZHOU) CO., LTD., priority 2018, dated 2025)
Read-outs that look alike come from different tables or passages of the source.

Assays:
[1] = Pharmacokinetic (PK) analysis in MH-22A tumor-bearing mice (LC/MS/MS); type: in vivo, mouse; conditions: mouse; for concentration at 4 h: oral, 100 mg/kg
Method: The quantitative LC/MS/MS analysis was conducted using an Exion HPLC system (AB Sciex, Ontario, Canada) coupled to an API 5500 mass spectrometer (AB Sciex, Ontario, Canada) equipped with an API electrospray ionization (ESI) source. The Phenomenex Titank phenyl-Hexyl column (50 mm×2.1 mm, 5 μm particle size) was used to achieved HPLC separation. The injection volume was 2 μl and the flow rate was kept constantly at 0.5 ml/min. Chromatography was performed with mobile phase A, acetonitrile:water:formic (5:95:0.1, by volume) and B, acetonitrile:water:formic (95:5:0.1, by volume). The mass spectrometer was operated at ESI positive ion mode for APG-115 while ESI negative mode for epacadostat. The detection of the ions was performed in the multiple reaction monitoring (MRM) mode, monitoring the transition of m/z 642.0→246.1 and 271.1→172.0 for APG-115 and IS (tolbutamide) in positive mode, 435.9→338.8 and 269.2→169.2 for epacadostat and IS (tolbutamide) in negative mode, respectively. Compounds parameters, declustering potential (DP), collision energy (CE) were 51, 61 V, 80, 18 V for APG-115 and IS in positive mode, −61, −15 V and −90, −23.5 V for epacadostat and IS in negative mode, respectively.
Blood and tumor samples were collected from 5 mice/group in group-1, group-2, group-3 and group-5 4 hrs after the final dose on […]. Blood samples were collected from 5 mice/group in group-4, group-6, group-7 and group-8 4 hrs after the final dose on d29. Approximately 100 μl blood were collected in EDTA-2K tube and 50 μl plasma were collected for PK analysis. All samples were stored at −80° C. until analysis.
In efficacy study of Example 2.1, mice in vehicle, APG-115 10 mg/kg and 50 mg/kg, and epacadostat single-agent groups were euthanized on d15 as described above. To assess PK characteristics of APG-115 and epacadostat in this study, plasma and tissue samples were collected 4 h after the last dosing on d15.

[2] = system: MH-22A syngeneic tumor model; assay: Efficacy in the TIL analysis study, MH-22A model (d7); type: in vivo, mouse; conditions: APG-115 10 mg/kg p.o. q2d; anti-PD-1 5 mg/kg i.p. biw; epacadostat 100 mg/kg p.o. bid; × 6 d
Method: (§1) Each mouse was inoculated subcutaneously at the right flank region with MH-22A tumor cells (5×10^6) in 0.2 mL of PBS for tumor development. The treatments were started when the mean tumor size reached 60 mm^3. The test articles were administered to the tumor-bearing mice according to the regimen shown in the experimental design Table 6. The day of start dosing was defined as d1.
Mice bearing MH-22A murine hepatoma tumors were treated with various agent(s) under different regimens as indicated. Isotype control antibody was included in the control.

[3] = system: MH-22A murine hepatoma syngeneic model; assay: In vivo efficacy study in MH-22A model; parameters: species or system mouse
Method: Tumor volumes were measured twice weekly in two dimensions using a caliper, and the volume was expressed in mm^3 using the formula: Tumor Volume(mm^3)=0.5a×b^2 where a and b are the long and short diameters of the tumor, respectively.
Relative tumor volume (RTV) was calculated using the following formula: RTV=Vt/V1 Where V1 and Vt are the average tumor volumes on the first day of treatment (day 1) and the average tumor volumes on a certain time point (day t).
Synergy score was calculated using the following formula (Clarke R, Breast Cancer Research & Treatment, 1997, 46(2-3):255-278): Synergy score=((A/C)×(B/C))/(AB/C); A: response to treatment A; B: response to treatment B; C: response to vehicle control; AB: combination of treatment A and B.
Standard NCI procedures were used to calculate tumor parameters. Percent tumor growth inhibition (% T/C) was calculated as the mean RTV of treated tumors (T) divided by the mean RTV of control tumors (C)×100%. The percentage T/C value is an indication of antitumor effectiveness: a value of T/C<42% is considered significant antitumor activity by the NCI. A T/C value <10% is considered to indicate highly significant antitumor activity, and is the level used by the NCI to justify a clinical trial if toxicity and certain other requirements are met (termed DN-2 level activity). A body weight loss nadir (mean of group) of greater than 20%, or greater than 20% of drug deaths are considered to indicate an excessively toxic dosage.
as §1, with “initiated” for “started”, “˜65” for “60”, “3.” for “6.”

[4] = APG-115 10 mg/kg p.o. qd, anti-PD-1 10 mg/kg i.p. biw, epacadostat 100 mg/kg p.o. bid

In the case of `NS(=O)(=O)NCCNc1nonc1C(=NO)Nc1ccc(F)c(Br)c1` [epacadostat, reference compound], the “pharmacokinetic interaction with anti-PD-1 antibody” value ([1]; in vivo) is reported as “no apparent pharmacokinetic interaction”, the concentration at 4 h ([1]; plasma, 100 mg/kg daily oral, alone, read-out: plasma concentration of epacadostat) is reported as 5890 ng/mL and the concentration at 4 h ([1]; plasma, 100 mg/kg daily oral, combined with anti-PD-1, read-out: plasma concentration of epacadostat) is reported as 8620 ng/mL. The concentration at 4 h ([1]; tumor, 100 mg/kg dosed alone, read-out: epacadostat concentration in tumor) was 9260 ng/g, the “RTV (Mean) d7” value [2] was 12.7 and the “T/C (%) d7” value [2] was 82%. The “RTV (Mean ± SEM) d15” value [3, 4] was 49.1 ± 5.8, the “T/C (%) d15” value [3, 4] was 128% and the “Response rate (%) d15” value ([3]; APG-115 10 mg/kg, anti-PD-1 10 mg/kg, epacadostat 100 mg/kg, n=10) was 0%. The “antitumor activity as single agents” value ([3]; APG-115 10 and 50 mg/kg, epacadostat 100 mg/kg) was “did not exert antitumor activity”.
